Experimental data taken from ChEMBL document CHEMBL1909046, “DrugMatrix in vitro pharmacology data”.
*1 amine or outer side, *2 acyl side, *3 side chain or, on linkers, in order; H or OH if unused. Where a SMILES comes first, the peptide text is derived from it. Bridges are numbered along the chain shown (N, C = ends). Roman numbers before positions name the chains, in order. [ ]: non-standard residue; d: D form. Actinocin(1to9) = Cc1c2oc3c(C)ccc(C(=O)[*:2])c3nc-2c(C(=O)[*:1])c(N)c1=O; NMeV = CN[C@H](C(=O)O)C(C)C; Sar = CNCC(=O)O

Key:
Endothelin-1 receptor = biological target: T1, Endothelin-1 receptor (Homo sapiens, UniProt P25101); format: cell membranes, CHO-K1, Membrane; conditions: cho-k1; further: in other assays of this panel Not Active means under 50% inhibition at 10 µM
T1 sequence (P25101 whole entry): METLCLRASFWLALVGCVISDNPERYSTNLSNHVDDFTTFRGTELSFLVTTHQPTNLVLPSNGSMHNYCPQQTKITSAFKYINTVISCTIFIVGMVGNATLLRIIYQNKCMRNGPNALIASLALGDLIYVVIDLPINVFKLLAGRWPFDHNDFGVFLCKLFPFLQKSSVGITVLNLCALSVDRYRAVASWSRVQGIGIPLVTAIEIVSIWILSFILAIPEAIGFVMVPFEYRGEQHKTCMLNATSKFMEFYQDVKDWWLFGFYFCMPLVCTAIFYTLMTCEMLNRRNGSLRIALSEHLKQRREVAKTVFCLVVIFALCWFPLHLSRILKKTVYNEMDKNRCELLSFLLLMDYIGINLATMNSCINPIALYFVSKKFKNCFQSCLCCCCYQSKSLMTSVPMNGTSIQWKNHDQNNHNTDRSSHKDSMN

[1] = DRUGMATRIX: Serotonin (5-Hydroxytryptamine) 5-HT3 radioligand binding (ligand: [3H] GR-65630); format: cell membranes, Membrane; conditions: hek293; Not Active = under 50% inhibition at 10 µM
[2] = biological target: C-C chemokine receptor type 2 (Homo sapiens, UniProt P41597); format: cell membranes, CHO-K1, Membrane; conditions: cho-k1; further: in other assays of this panel Not Active means under 50% inhibition at 10 µM
Sequence of C-C chemokine receptor type 2 (P41597 whole entry): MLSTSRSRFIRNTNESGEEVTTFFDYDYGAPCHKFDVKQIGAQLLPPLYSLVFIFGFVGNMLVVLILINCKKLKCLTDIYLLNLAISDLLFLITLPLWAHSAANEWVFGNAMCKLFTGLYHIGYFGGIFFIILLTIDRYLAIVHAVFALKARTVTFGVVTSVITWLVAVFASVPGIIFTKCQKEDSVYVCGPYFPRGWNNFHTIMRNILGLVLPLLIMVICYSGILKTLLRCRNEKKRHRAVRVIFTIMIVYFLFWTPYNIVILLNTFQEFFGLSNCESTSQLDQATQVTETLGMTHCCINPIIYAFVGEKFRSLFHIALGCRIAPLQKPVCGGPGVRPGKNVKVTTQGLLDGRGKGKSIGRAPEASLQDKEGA

Thromboxane-A synthase = biological target: T2, Thromboxane-A synthase (Homo sapiens, UniProt P24557); assay: biochemical; format: tissue-based, Platelet;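 further: enzyme inhibition assay with PGH2 supplied as substrate; in other assays of this panel Not Active means under 50% inhibition at 10 µM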
T2 sequence (P24557 whole entry): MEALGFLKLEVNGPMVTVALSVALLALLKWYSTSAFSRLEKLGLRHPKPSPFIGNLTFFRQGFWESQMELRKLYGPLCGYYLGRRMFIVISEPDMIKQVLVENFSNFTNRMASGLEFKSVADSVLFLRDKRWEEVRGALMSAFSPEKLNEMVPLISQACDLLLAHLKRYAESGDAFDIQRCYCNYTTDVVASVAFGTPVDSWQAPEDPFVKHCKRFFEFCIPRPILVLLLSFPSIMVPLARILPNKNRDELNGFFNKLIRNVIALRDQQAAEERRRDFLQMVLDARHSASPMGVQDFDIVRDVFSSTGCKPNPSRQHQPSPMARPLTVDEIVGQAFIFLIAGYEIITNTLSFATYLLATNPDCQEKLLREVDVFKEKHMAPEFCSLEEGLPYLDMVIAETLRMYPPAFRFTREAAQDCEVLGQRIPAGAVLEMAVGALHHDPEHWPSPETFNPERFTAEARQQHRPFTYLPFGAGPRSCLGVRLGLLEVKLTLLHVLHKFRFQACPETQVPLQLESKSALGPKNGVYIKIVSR

[3] = biological target: Prostaglandin G/H synthase 1 (Homo sapiens, UniProt P23219); assay: biochemical; format: tissue-based, Platelet;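 further: inhibition of COX-1 enzyme activity, with arachidonic acid supplied as substrate; in other assays of this panel Not Active means under 50% inhibition at 10 µM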
Sequence of Prostaglandin G/H synthase 1 (P23219 whole entry): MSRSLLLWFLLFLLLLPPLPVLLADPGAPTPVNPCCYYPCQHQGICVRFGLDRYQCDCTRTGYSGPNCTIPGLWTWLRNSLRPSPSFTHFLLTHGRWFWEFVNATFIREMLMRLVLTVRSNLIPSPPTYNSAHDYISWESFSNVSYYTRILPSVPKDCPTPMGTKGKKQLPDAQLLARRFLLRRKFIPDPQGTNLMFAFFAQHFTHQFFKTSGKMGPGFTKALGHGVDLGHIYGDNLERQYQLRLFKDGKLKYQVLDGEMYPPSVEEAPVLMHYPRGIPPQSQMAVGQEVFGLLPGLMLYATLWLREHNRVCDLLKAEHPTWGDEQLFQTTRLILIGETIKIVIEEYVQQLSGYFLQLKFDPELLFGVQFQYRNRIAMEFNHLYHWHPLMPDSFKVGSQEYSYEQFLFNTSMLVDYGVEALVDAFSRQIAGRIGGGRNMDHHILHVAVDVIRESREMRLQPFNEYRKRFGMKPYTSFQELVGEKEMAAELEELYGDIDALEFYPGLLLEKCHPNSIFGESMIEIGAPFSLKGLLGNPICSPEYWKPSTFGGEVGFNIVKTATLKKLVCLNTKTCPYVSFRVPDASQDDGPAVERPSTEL

Estrogen receptor = biological target: T3, Estrogen receptor (Homo sapiens, UniProt P03372); conditions: sf9; further: in other assays of this panel Not Active means under 50% inhibition at 10 µM
T3 sequence (P03372 whole entry): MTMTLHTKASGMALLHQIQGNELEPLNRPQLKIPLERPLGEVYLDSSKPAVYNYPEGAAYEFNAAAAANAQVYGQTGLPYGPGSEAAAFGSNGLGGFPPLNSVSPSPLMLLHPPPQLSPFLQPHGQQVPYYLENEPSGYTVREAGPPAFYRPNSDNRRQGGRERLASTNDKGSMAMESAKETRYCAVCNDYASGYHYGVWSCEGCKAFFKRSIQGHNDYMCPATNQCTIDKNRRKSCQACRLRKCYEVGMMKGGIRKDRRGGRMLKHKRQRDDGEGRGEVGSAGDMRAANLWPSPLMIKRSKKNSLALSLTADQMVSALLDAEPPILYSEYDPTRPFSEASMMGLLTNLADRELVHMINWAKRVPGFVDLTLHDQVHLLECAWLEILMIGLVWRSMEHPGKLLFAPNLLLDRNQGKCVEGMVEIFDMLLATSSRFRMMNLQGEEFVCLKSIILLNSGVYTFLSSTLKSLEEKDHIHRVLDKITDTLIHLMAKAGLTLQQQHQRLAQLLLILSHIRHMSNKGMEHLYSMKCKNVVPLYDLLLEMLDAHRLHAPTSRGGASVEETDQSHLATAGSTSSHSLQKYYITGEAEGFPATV

[4] = biological target: Sodium-dependent dopamine transporter (Homo sapiens, UniProt Q01959); assay: DRUGMATRIX: Dopamine Transporter radioligand binding (ligand: [125I] RTI-55); format: cell membranes, CHO-K1, Membrane; conditions: Not Active = under 50% inhibition at 10 µM
Sequence of Sodium-dependent dopamine transporter (Q01959 whole entry): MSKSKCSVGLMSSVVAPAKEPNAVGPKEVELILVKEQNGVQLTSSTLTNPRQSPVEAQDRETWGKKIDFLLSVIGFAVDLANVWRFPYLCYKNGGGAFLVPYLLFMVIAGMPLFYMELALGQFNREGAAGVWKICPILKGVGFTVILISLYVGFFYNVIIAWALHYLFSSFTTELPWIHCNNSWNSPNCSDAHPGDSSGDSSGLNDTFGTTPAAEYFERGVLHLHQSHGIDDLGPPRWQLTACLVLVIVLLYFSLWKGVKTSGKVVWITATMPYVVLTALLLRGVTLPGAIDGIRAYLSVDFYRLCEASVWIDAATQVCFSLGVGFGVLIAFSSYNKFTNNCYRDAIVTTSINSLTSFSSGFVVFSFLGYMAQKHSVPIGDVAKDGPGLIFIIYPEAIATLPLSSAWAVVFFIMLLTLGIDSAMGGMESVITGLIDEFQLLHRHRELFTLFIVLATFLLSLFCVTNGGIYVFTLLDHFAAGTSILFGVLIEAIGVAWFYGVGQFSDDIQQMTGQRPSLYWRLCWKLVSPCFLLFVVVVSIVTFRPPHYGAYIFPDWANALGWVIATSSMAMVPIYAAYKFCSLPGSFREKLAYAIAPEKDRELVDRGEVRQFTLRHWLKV

SMILES	IC50 (Endothelin-1 receptor)	IC50 [1]	Ki [1]	IC50 [2]	IC50 (Thromboxane-A synthase; read-out: IC50) [µM]	IC50 ([3]; platelet)	IC50 (Estrogen receptor)	IC50 ([4]; read-out: IC50) [µM]	Ki ([4]; read-out: Ki) [µM]	IC50 (Thromboxane-A synthase; platelet)	IC50 ([4]; cho-k1)	IC50 ([3]; read-out: IC50) [µM]
Cc1cc(C(C#N)c2ccc(Cl)cc2)c(Cl)cc1NC(=O)c1cc(I)cc(I)c1O (configuration not stated) [CLOSANTEL]	Not Active	Not Active	Not Active	Not Active	0.064	Not Active	Not Active	4.8	3.8	–	–	–
Cc1onc(-c2ccccc2Cl)c1C(=O)N[C@@H]1C(=O)N2[C@@H]1SC(C)(C)[C@@H]2C(=O)O [CLOXACILLIN]	Not Active	Not Active	Not Active	Not Active	–	Not Active	Not Active	–	–	Not Active	Not Active	–
CC1CC(OC(=O)C(O)c2ccccc2)CC(C)(C)C1 (configuration not stated) [CYCLANDELATE]	Not Active	Not Active	Not Active	Not Active	–	Not Active	Not Active	–	–	Not Active	Not Active	–
Cc1c2oc3c(C)ccc(C(=O)N[C@@H]4C(=O)N[C@H](C(C)C)C(=O)N5CCC[C@H]5C(=O)N(C)CC(=O)N(C)[C@@H](C(C)C)C(=O)O[C@@H]4C)c3nc-2c(C(=O)N[C@@H]2C(=O)N[C@H](C(C)C)C(=O)N3CCC[C@H]3C(=O)N(C)CC(=O)N(C)[C@@H](C(C)C)C(=O)O[C@@H]2C)c(N)c1=O [DACTINOMYCIN] (I: T[dV]P[Sar][NMeV] / II: T[dV]P[Sar][NMeV]; ester I:1-I:C, II:1-II:C; linker I:N-II:N via Actinocin(1to9))	Not Active	Not Active	Not Active	Not Active	–	Not Active	Not Active	–	–	Not Active	Not Active	–
Cc1c(O)c(=O)ccn1C [DEFERIPRONE]	Not Active	Not Active	Not Active	Not Active	–	Not Active	Not Active	–	–	Not Active	Not Active	–
CC(C)[C@@]1(NC(=O)[C@@H]2C[C@@H]3c4cccc5[nH]cc(c45)C[C@H]3N(C)C2)O[C@@]2(O)[C@@H]3CCCN3C(=O)[C@H](Cc3ccccc3)N2C1=O.CS(=O)(=O)O [DIHYDROERGOCRISTINE MESYLATE]	Not Active	Not Active	Not Active	Not Active	–	Not Active	Not Active	–	–	Not Active	Not Active	–
O=C(CCCN1CC=C(n2c(=O)[nH]c3ccccc32)CC1)c1ccc(F)cc1 [DROPERIDOL]	Not Active	Not Active	Not Active	Not Active	–	Not Active	Not Active	–	–	Not Active	Not Active	–
CC(C)[C@H]1C(=O)N2CCC[C@H]2[C@]2(O)O[C@](NC(=O)[C@@H]3C=C4c5cccc6[nH]cc(c56)C[C@H]4N(C)C3)(C(C)C)C(=O)N12 [ERGOCORNINE]	Not Active	Not Active	Not Active	Not Active	1.99	Not Active	Not Active	–	–	–	Not Active	–
OC(Cn1cncn1)(Cn1cncn1)c1ccc(F)cc1F [FLUCONAZOLE]	Not Active	Not Active	Not Active	Not Active	–	Not Active	Not Active	–	–	Not Active	Not Active	–
CC(C)C(=O)Nc1ccc([N+](=O)[O-])c(C(F)(F)F)c1 [FLUTAMIDE]	Not Active	Not Active	Not Active	Not Active	–	Not Active	Not Active	–	–	Not Active	Not Active	–
N=C(N)NCCN1CCCCCCC1 [GUANETHIDINE]	Not Active	Not Active	Not Active	Not Active	–	Not Active	Not Active	–	–	Not Active	Not Active	–
CC1(C)O[C@@H]2C[C@H]3[C@@H]4CCC5=CC(=O)CC[C@]5(C)[C@@]4(F)[C@@H](O)C[C@]3(C)[C@]2(C(=O)CCl)O1 [HALCINONIDE]	Not Active	Not Active	Not Active	Not Active	–	Not Active	Not Active	–	–	Not Active	Not Active	–
CC1Cc2ccccc2N1NC(=O)c1ccc(Cl)c(S(N)(=O)=O)c1 (configuration not stated) [INDAPAMIDE]	Not Active	Not Active	Not Active	Not Active	–	Not Active	Not Active	–	–	Not Active	Not Active	–
CCC(C)n1ncn(-c2ccc(N3CCN(c4ccc(OCC5COC(Cn6cncn6)(c6ccc(Cl)cc6Cl)O5)cc4)CC3)cc2)c1=O (configuration not stated) [ITRACONAZOLE]	Not Active	Not Active	Not Active	Not Active	–	Not Active	Not Active	–	–	Not Active	Not Active	–
CCCCN1CCCC[C@H]1C(=O)Nc1c(C)cccc1C [LEVOBUPIVACAINE]	Not Active	Not Active	Not Active	Not Active	–	Not Active	Not Active	–	–	Not Active	Not Active	–
Sc1ncnc2nc[nH]c12 [MERCAPTOPURINE ANHYDROUS]	Not Active	Not Active	Not Active	Not Active	–	–	Not Active	–	–	Not Active	Not Active	16.2
C[C@]12CCC(=O)C=C1CC[C@@H]1[C@@H]2CC[C@@]2(C)[C@H]1CC[C@]2(C)O [METHYLTESTOSTERONE]	Not Active	Not Active	Not Active	Not Active	–	Not Active	Not Active	–	–	Not Active	Not Active	–
CCn1cc(C(=O)O)c(=O)c2cc(F)c(N3CCNCC3)cc21 [NORFLOXACIN]	Not Active	Not Active	Not Active	Not Active	–	Not Active	Not Active	–	–	Not Active	Not Active	–
Nc1nc2c(ncn2CCC(CO)CO)c(=O)[nH]1 [PENCICLOVIR]	Not Active	Not Active	Not Active	Not Active	–	Not Active	Not Active	–	–	Not Active	Not Active	–
C=C(C)C1(O)OC(=O)C=C1OC (configuration not stated) [PENICILLIC ACID]	Not Active	Not Active	Not Active	Not Active	–	Not Active	Not Active	–	–	Not Active	Not Active	–
CC1(C)S[C@@H]2[C@H](NC(=O)Cc3ccccc3)C(=O)N2[C@H]1C(=O)O [PENICILLIN G]	Not Active	Not Active	Not Active	Not Active	–	Not Active	Not Active	–	–	Not Active	Not Active	–
CCCN1C[C@H](CSC)C[C@@H]2c3cccc4[nH]cc(c34)C[C@H]21 [PERGOLIDE]	Not Active	Not Active	Not Active	Not Active	–	Not Active	Not Active	–	–	Not Active	Not Active	–
